Patent US20230407243A1, “GENETIC PLATFORM TO INVESTIGATE THE FUNCTIONS OF BACTERIAL DRUG EFFLUX PUMPS” (priority 2022, published 2023)
Like-named read-outs stand apart in the source and are kept apart here.

How the values were obtained:
Assay type in all cases: cell-based, Escherichia coli
E. coli ΔtolC = assay: microbe, parasite or virus in culture; conditions: for MIC: Escherichia coli, 18 h, read-out: Minimum Inhibitory Concentration, ΔtolC; for Minimum inhibitory concentration (MIC), ΔtolC: Table 10, without pore; for Minimum inhibitory concentration (MIC), ΔtolC / Minimum Inhibitory Concentration, ΔtolC: technical duplicate; for Minimum Inhibitory Concentration, ΔtolC: Table 13A, non-porinated
Outline: (§1)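 Turbidity (OD600, pre-incubation subtracted) defined growth after 18 h at 37 °C in MHB II. The inoculum was diluted 1/2000 from an OD600 ~1.0 PBS suspension of an overnight LB culture. Compounds were run as duplicate twofold dilutions.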

E. coli EKO-35 = assay: microbe, parasite or virus in culture; conditions: for Fold change of MICs: EKO-35 compared to EKO-35 (reference); for MIC: Escherichia coli
Outline: as §1

[1] = tested on: wild-type E. coli K-12 str. BW25113; assay: microbe, parasite or virus in culture; conditions: for MIC: Escherichia coli
Outline: as §1

EKO-35 araC::acrD = assay: MIC susceptibility profiling, efflux platform; conditions: for Fold change of MICs: EKO-35 araC::acrD compared to EKO-35; for MIC: Escherichia coli, read-out: Minimum Inhibitory Concentration, EKO-35 araC::acrD; for MIC / Minimum Inhibitory Concentration, EKO-35 araC::acrD: Table 13A, non-porinated, technical duplicate
Outline: as §1

EKO-35 araC::mdtBC = assay: MIC susceptibility profiling, efflux platform; conditions: for Fold change of MICs: EKO-35 araC::mdtBC compared to EKO-35; for MIC: Escherichia coli, read-out: Minimum Inhibitory Concentration, EKO-35 araC::mdtBC; for MIC / Minimum Inhibitory Concentration, EKO-35 araC::mdtBC: Table 13B, non-porinated, technical duplicate
Outline: as §1

EKO-35 araC::acrB = assay: MIC susceptibility profiling, efflux platform; conditions: for Fold change of MICs: EKO-35 araC::acrB compared to EKO-35; for MIC: Escherichia coli, read-out: Minimum Inhibitory Concentration, EKO-35 araC::acrB; for MIC / Minimum Inhibitory Concentration, EKO-35 araC::acrB: Table 13A, non-porinated, technical duplicate
Outline: as §1

[2] = tested on: EKO-35 araC::mexCD (MexCD from P. aeruginosa); assay: MIC susceptibility profiling, efflux platform; conditions: for Fold change of MICs: EKO-35 araC::mexCD compared to EKO-35; for MIC / Minimum Inhibitory Concentration, EKO-35 araC::mexCD: Table 13B, non-porinated, technical duplicate; for MIC: read-out: Minimum Inhibitory Concentration, EKO-35 araC::mexCD
Outline: as §1

EKO-35-Pore = assay: MIC susceptibility profiling, porinated strain; conditions: for Fold changes of MICs: EKO-35-Pore compared to EKO-35-Pore (reference); for MIC: Escherichia coli
Outline: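 E. coli strains carrying a genomically integrated constitutive fhuA ΔC/Δ4L pore were grown 18 h in LB at 37 °C, then diluted 1/2000 in MHB II from OD600 ~1.0. Compounds were tested in duplicate, 2-fold serial titration, for 18 h at 37 °C with shaking. MIC came from OD600 with the pre-incubation background subtracted.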

[3] = EKO35, Table 10, without pore, technical duplicate, read-out: Minimum inhibitory concentration (MIC), EKO-35
[4] = EKO35, Table 13A, non-porinated, technical duplicate, read-out: Minimum Inhibitory Concentration, EKO-35
[5] = BW25113, Table 10, without pore, technical duplicate, read-out: Minimum inhibitory concentration (MIC), K-12
[6] = BW25113, Table 13A, non-porinated, technical duplicate, read-out: Minimum Inhibitory Concentration, K-12
[7] = Table 10, with pore, technical duplicate, read-out: Minimum inhibitory concentration (MIC), Pore EKO-35
[8] = Table 14A, porinated, technical duplicate, read-out: Minimum inhibitory concentration, EKO-35-Pore
[9] = Table 10, without pore, technical duplicate
[10] = Table 13A, non-porinated, technical duplicate
[11] = Table 10, with pore, technical duplicate
[12] = Table 14A, porinated, technical duplicate

Row | Compound | MIC (E. coli ΔtolC) | Minimum inhibitory concentration (MIC), ΔtolC (E. coli ΔtolC) | Fold change of MICs (E. coli EKO-35) | Fold change of MICs (EKO-35 araC::acrD) | Fold change of MICs (EKO-35 araC::mdtBC) | Fold change of MICs (EKO-35 araC::acrB) | Fold change of MICs [2] | MIC [2] | Fold changes of MICs (EKO-35-Pore) | MIC (E. coli EKO-35; [3]) | MIC (E. coli EKO-35; [4]) | MIC [1, 5] | MIC [1, 6] | MIC (EKO-35 araC::acrD) | MIC (EKO-35 araC::mdtBC) | MIC (EKO-35 araC::acrB) | MIC (EKO-35-Pore; [8]) | Minimum Inhibitory Concentration, ΔtolC (E. coli ΔtolC) | Minimum inhibitory concentration (MIC), EKO-35 (E. coli EKO-35; [9]) | Minimum Inhibitory Concentration, EKO-35 (E. coli EKO-35; [10]) | also measured
1 | NCCCNCCCCNCCCN [Spermine] | 2000 mg/L | 2000 mg/L | 1 fold | 1 fold | 1 fold | 1 fold | 1 fold | 2000 mg/L | 1 fold | – | – | – | – | – | – | – | – | – | – | – | MIC (E. coli EKO-35; EKO35, read-out: Minimum Inhibitory Concentration, EKO-35): 2000 mg/L; MIC (E. coli EKO-35; EKO35, read-out: Minimum inhibitory concentration (MIC), EKO-35): 2000 mg/L; MIC ([1]; BW25113, read-out: Minimum Inhibitory Concentration, K-12): 2000 mg/L; MIC ([1]; BW25113, read-out: Minimum inhibitory concentration (MIC), K-12): 2000 mg/L
2 | [H]/N=C(/N)N[C@H]1[C@H](O)[C@@H](O)[C@H](O[C@@H]2O[C@@H](C)[C@](O)(C=O)[C@H]2O[C@@H]2O[C@@H](CO)[C@H](O)[C@@H](O)[C@@H]2NC)[C@@H](N/C(N)=N\[H])[C@@H]1O [Streptomycin] | 3.12 mg/L | 3.125 mg/L | 1 fold | 2 fold | 2 fold | 2 fold | 1 fold | 3.12 mg/L | 1 fold | 3.12 mg/L | 3.12 mg/L | 6.25 mg/L | 6.25 mg/L | 6.25 mg/L | 6.25 mg/L | 6.25 mg/L | 3.12 mg/L | – | – | – | MIC (EKO-35-Pore; [7]): 3.12 mg/L
3 | O=C(N[C@H](CO)[C@H](O)c1ccc([N+](=O)[O-])cc1)C(Cl)Cl [chloramphenicol] | 1.56 mg/L | 1.563 mg/L | 1 fold | 2 fold | 1 fold | 8 fold | 1 fold | 0.781 mg/L | 1 fold | 0.781 mg/L | 0.781 mg/L | 6.5 mg/L | 6.25 mg/L | 1.56 mg/L | 0.781 mg/L | 6.25 mg/L | 0.781 mg/L | – | – | – | MIC (EKO-35-Pore; read-out: Minimum inhibitory concentration (MIC), Pore EKO-35): 0.781 mg/L
4 | N#Cc1ccc(-c2c(NC(=O)C(Cl)Cl)oc(-c3cccs3)c2C#N)cc1 [compound 2] | – | 1.25 mg/L | 1 fold | 1 fold | 1 fold | 1 fold | 1 fold | – | 1 fold | – | – | – | – | – | – | – | – | 1.25 µg/mL | 320 mg/L | 320 µg/mL | Minimum inhibitory concentration (MIC), K-12 [1, 9]: 320 mg/L; Minimum Inhibitory Concentration, K-12 [1, 10]: 320 µg/mL; Minimum Inhibitory Concentration, EKO-35 araC::acrD (EKO-35 araC::acrD): 320 µg/mL; Minimum Inhibitory Concentration, EKO-35 araC::mdtBC (EKO-35 araC::mdtBC): 320 µg/mL; Minimum Inhibitory Concentration, EKO-35 araC::acrB (EKO-35 araC::acrB): 320 µg/mL; Minimum Inhibitory Concentration, EKO-35 araC::mexCD [2]: 320 µg/mL; Minimum inhibitory concentration (MIC), Pore EKO-35 (EKO-35-Pore; [11]): 320 mg/L; Minimum inhibitory concentration, EKO-35-Pore (EKO-35-Pore; [12]): 320 mg/L
5 | O=C(Nc1cccc(Oc2c(F)c(F)c(F)c(F)c2F)c1)c1ccccc1 [compound 1] | – | 5 mg/L | 1 fold | 1 fold | 1 fold | 1 fold | 1 fold | – | 1 fold | – | – | – | – | – | – | – | – | 5 µg/mL | 320 mg/L | 320 µg/mL | Minimum inhibitory concentration (MIC), K-12 [1, 9]: 320 mg/L; Minimum Inhibitory Concentration, K-12 [1, 10]: 320 µg/mL; Minimum Inhibitory Concentration, EKO-35 araC::acrD (EKO-35 araC::acrD): 320 µg/mL; Minimum Inhibitory Concentration, EKO-35 araC::mdtBC (EKO-35 araC::mdtBC): 320 µg/mL; Minimum Inhibitory Concentration, EKO-35 araC::acrB (EKO-35 araC::acrB): 320 µg/mL; Minimum Inhibitory Concentration, EKO-35 araC::mexCD [2]: 320 µg/mL; Minimum inhibitory concentration (MIC), Pore EKO-35 (EKO-35-Pore; [11]): 320 mg/L; Minimum inhibitory concentration, EKO-35-Pore (EKO-35-Pore; [12]): 320 mg/L
6 | O=C(Nc1ccc(C(F)(F)F)cc1)Nc1ccc(C(F)(F)F)cc1 [compound 7] | – | 0.313 mg/L | 1 fold | 1 fold | 1 fold | 1 fold | 1 fold | – | 1 fold | – | – | – | – | – | – | – | – | 0.313 µg/mL | 320 mg/L | 320 µg/mL | Minimum inhibitory concentration (MIC), K-12 [1, 9]: 320 mg/L; Minimum Inhibitory Concentration, K-12 [1, 10]: 320 µg/mL; Minimum Inhibitory Concentration, EKO-35 araC::acrD (EKO-35 araC::acrD): 320 µg/mL; Minimum Inhibitory Concentration, EKO-35 araC::mdtBC (EKO-35 araC::mdtBC): 320 µg/mL; Minimum Inhibitory Concentration, EKO-35 araC::acrB (EKO-35 araC::acrB): 320 µg/mL; Minimum Inhibitory Concentration, EKO-35 araC::mexCD [2]: 320 µg/mL; Minimum inhibitory concentration (MIC), Pore EKO-35 (EKO-35-Pore; [11]): 320 mg/L; Minimum inhibitory concentration, EKO-35-Pore (EKO-35-Pore; [12]): 320 mg/L
7 | CCn1cc(C(=O)O)c(=O)c2ccc(C)nc21 [nalidixic acid] | 1.25 mg/L | 1.25 mg/L | 1 fold | 2 fold | 1 fold | 8 fold | 2 fold | 2.5 mg/L | 1 fold | 1.25 mg/L | 1.25 mg/L | 10 mg/L | 10 mg/L | 2.5 mg/L | 1.25 mg/L | 10 mg/L | 1.25 mg/L | – | – | – | MIC (EKO-35-Pore; [7]): 1.25 mg/L
